Reference: article PMC9244909 (ACS Omega, 2022)
“And” between values parts separate entries of the source, which are not always exact repeats. Equal entries are not always repeated.

Columns and labels:
[1] = tested on: SARS-CoV-2 VOC-202012/01 strain; format: cell-based
[2] = cited from earlier work

Compound	100% CPE inhibitory concentration (CPEIC100) [1]	time to maximal effectiveness on the coronavirus ([1]; after starting treatment)	plasma half-life [2]	time of peak plasma concentrations [2]
O=c1nc[nH]c2c1ncn2[C@H]1CC[C@@H](CO)O1 [DDI, 9-[(2R,5S)-5-(hydroxymethyl)oxolan-2-yl]-3H-purin-6-one]	8.95 µM and 8.95 ± 0.52 µM	12 to 24 h	≤ 2 h	0.5 to 1.5 h
CCC(CC)COC(=O)[C@H](C)N[P@](=O)(OC[C@H]1O[C@@](C#N)(c2ccc3c(N)ncnn23)[C@H](O)[C@@H]1O)Oc1ccccc1 [remdesivir]	25.17 µM and 25.17 ± 2.51 µM			
N#C[C@@]1(c2ccc3c(N)ncnn23)O[C@H](CO)[C@@H](O)[C@H]1O [GS-441524]	17.40 µM and 17.40 ± 1.83 µM			
